Test results as given in US20190151312A1, “HEPARAN SULFATE BIOSYNTHESIS INHIBITORS FOR THE TREATMENT OF DISEASES” (BioMarin Pharmaceutical Inc., priority 2014, published 2019).
Read-outs that look alike come from different tables or passages of the source.

System: GM01896 cells (MPS II dermal fibroblasts)
Experiment: Assay 1: MPS cellular assay, MPS II (heparan sulfate disaccharide biomarkers by LC-MS)
Assay type: cell-based, human
Details: Assay 1 for MPS II, heparan sulfate disaccharide biomarkers (I2a4, I2a6, I2S0 and/or I2S6), read-out: IC50 Range
Procedure: Dermal fibroblasts from humans with an MPS disorder and from healthy donors are grown. Cells are expanded and kept in culture for analysis. Human foreskin fibroblasts can be obtained from the American Type Culture Collection (CRL-1634). Human dermal fibroblasts derived from biopsies of individuals are purchased from Coriell Institute: clinically healthy individuals, GM00408, GM00409, GM00200 (clinically unaffected sibling of an individual with metachromatic leukodystrophy), GM05659, GM08398, and GM15871 (clinically unaffected sibling of an individual with unclassified Ehlers-Danlos syndrome); heterozygous MPS I carriers, GM01392, GM01393 and GM0003; homozygous individuals affected with MPS I, GM06214, GM11495, GM00034, GM01391 and GM01256; individuals with MPS II, GM01896, GM03181, GM00615 and GM00298; individuals with MPS IIIA, GM00879, GM00643, GM00934, GM06110 and GM00629; MPS IIIB, GM01426; MPS IIIC, GM05157; MPS IIID, GM05093; and MPS VII, GM00121. All cells are grown in DMEM containing 50 U ml-1 penicillin, […] ml-1 streptomycin, 2 mM glutamine and 10% FBS. Cells are seeded on 15-cm-diameter tissue culture dishes, grown to confluence and maintained in culture for analysis. Sulfamidase activity in cell extracts is measured with 4-methylumbelliferyl-α-D-N-sulfoglucosaminide according the vendors instructions substituting Tris-acetate buffer (pH 6.5; Moscerdam).
Cells are treated with a compound of the invention at a concentration at or below 30 μM for 4 to 21 days. Cell monolayers are washed with phosphate buffered saline and detached by treatment with GIBCO trypsin-EDTA solution (Invitrogen). After centrifugation, the supernatant is removed and the cells are lysed in 0.5 mL of 0.1 N sodium hydroxide. The amount of protein is determined by bicinchoninic acid (BCA assay, Thermo Scientific). GAGs are isolated by anion exchange chromatography and digested with glycosaminoglycan lyases (heparinases I, II, and III, IBEX).
Enzymatically depolymerized GAG preparations are differentially mass labeled by reductive amination with [^12C6]aniline. Briefly, heparan sulfate disaccharides (1-10 pmol) are dried down in a centrifugal evaporator and reacted with [^12C6]aniline or [^13C6]aniline (15 μL, 165 μmol) and 15 μL of 1 M NaCNBH3 (Sigma-Aldrich) freshly prepared in dimethylsulfoxide/acetic acid (7:3, v/v) is added to each sample. Reactions are carried out at 37° C. for 16 h and then dried in a centrifugal evaporator. Unsubstituted amines are reacted with propionic anhydride (Sigma-Aldrich). Dried samples are reconstituted in 20 μL of 50% methanol, and 3 μL of propionic anhydride (Sigma-Aldrich, 23.3 μmol) is added. Reactions are carried out at ˜23° C. for 2 h. Acylated disaccharides are subsequently aniline tagged as described above. Each sample is mixed with commercially available standard unsaturated disaccharides (Seikagaku), standard N-sulfoglucosamine, glucosamine-6-sulfate, N-acetylgalactosamine-4-sulfate and N-acetylgalactosamine-6-sulfate (Sigma-Aldrich), and/or synthesized α-L-idopyranosyluronate-(1,4)-2-N-acetyl-2-deoxy-α/β-D-glucopyranoside (I0S0). All standards are tagged with [^13C6]aniline (Sigma-Aldrich). Samples are then analyzed by LC-MS using an LTQ Orbitrap Discovery electrospray ionization mass spectrometer (Thermo Scientific) equipped with quaternary HPLC pump (Finnigan Surveyor MS pump) and a reverse-phase capillary column as described in J. Biol. Chem. 2008, 283(48), 33674.
MPS II: Assay 1, as described above, was used to determine activity for MPS II using GM01896 cells. […] Extracted ion chromatograms were obtained. Cell viability was monitored using alamar blue or ATP quantification. IC50's were calculated using curve fitting within the ChemInnovation CBIS database system.

| SMILES | IC50 (Homo sapiens, Fibroblast) [nM] | IC50 [nM] |
| --- | --- | --- |
| Cc1nn(C)c2cc(-c3cc(Nc4ccc5ncn(C)c5c4)nc(N4CCOCC4)n3)ccc12 [[6-(1,3-dimethyl(1H-indazol-6-yl))-2-morpholin-4-ylpyrimidin-4-yl](1-methylbenzimidazol-6-yl)amine] | 1000 to 5000 |  |
| NC(=O)c1ccc(Nc2cc(-c3ccc4ncn(CCN5CCOCC5)c4c3)nc(N3CCOCC3)n2)cc1 [4-({2-morpholin-4-yl-6-[1-(2-morpholin-4-ylethyl)benzimidazol-6-yl]pyrimidin-4-yl}amino)benzamide] | 1000 to 5000 |  |
| CNC(=O)c1ccc(Nc2cc(-c3ccc4ncn(CCN5CCCC5)c4c3)nc(N3CCOCC3)n2)cc1 [N-methyl[4-({2-morpholin-4-yl-6-[1-(2-pyrrolidinylethyl)benzimidazol-6-yl]pyrimidin-4-yl}amino)phenyl]carboxamide] | 1000 to 5000 |  |
| CNC(=O)c1ccc(Nc2cc(-c3ccc4c(C)nn(C)c4c3)nc(N3CCOCC3)n2)cc1 [(4-{[6-(1,3-dimethyl(1H-indazol-6-yl))-2-morpholin-4-ylpyrimidin-4-yl]amino}phenyl)-N-methylcarboxamide] | < 500 |  |
| CNC(=O)c1ccc(Nc2cc(-c3ccc4c(cnn4C)c3)nc(N3CCOCC3)n2)cc1 [N-methyl(4-{[6-(1-methyl(1H-indazol-5-yl))-2-morpholin-4-ylpyrimidin-4-yl]amino}phenyl)carboxamide] | 500 to 1000 |  |
| Cc1nn(C)c2cc(-c3cc(Nc4ccc(-c5cnn[nH]5)cc4)nc(N4CCOCC4)n3)ccc12 [(4-(1H-1,2,3-triazol-5-yl)phenyl)[6-(1,3-dimethyl(1H-indazol-6-yl))-2-morpholin-4-ylpyrimidin-4-yl]amine] | 500 to 1000 |  |
| Cc1nc2ccc(-c3cc(Nc4ccc(Cl)cc4)nc(N4CCOCC4)n3)cc2n1C1COC1 [(4-chlorophenyl)[6-(2-methyl-1-oxetan-3-ylbenzimidazol-6-yl)-2-morpholin-4-ylpyrimidin-4-yl]amine] | < 500 |  |
| Cc1nc2ccc(-c3cc(Nc4ccc(Cl)cc4)nc(N4CCOCC4)n3)cc2n1CCN1CCCC1 [(4-chlorophenyl){6-[2-methyl-1-(2-pyrrolidinylethyl)benzimidazol-6-yl]-2-morpholin-4-ylpyrimidin-4-yl}amine] | 1000 to 5000 |  |
| Cc1nn(C)c2cc(-c3cc(Nc4ccc(Cl)cc4)nc(N4CCOCC4)n3)ccc12 [[6-(1,3-dimethyl(1H-indazol-6-yl))-2-morpholin-4-ylpyrimidin-4-yl](4-chlorophenyl)amine] | 500 to 1000 |  |
| Clc1ccc(Nc2cc(-c3ccc4c(Cl)nn(CCCN5CCOCC5)c4c3)nc(N3CCOCC3)n2)cc1 [{6-[3-chloro-1-(3-morpholin-4-ylpropyl)(1H-indazol-6-yl)]-2-morpholin-4-ylpyrimidin-4-yl}(4-chlorophenyl)amine] | 1000 to 5000 |  |
| Cc1ccn(-c2ccc(Nc3cc(-c4ccc5c(C)nn(C)c5c4)nc(N4CCOCC4)n3)cc2)n1 [[6-(1,3-dimethyl(1H-indazol-6-yl))-2-morpholin-4-ylpyrimidin-4-yl][4-(3-methylpyrazolyl)phenyl]amine] |  | < 500 |
| Cn1nc(CCN2CCOCC2)c2ccc(-c3cc(Nc4ccc(-c5ncco5)cc4)nc(N4CCOCC4)n3)cc21 [{6-[1-methyl-3-(2-morpholin-4-ylethyl)(1H-indazol-6-yl)]-2-morpholin-4-ylpyrimidin-4-yl}(4-(1,3-oxazol-2-yl)phenyl)amine] | 500 to 1000 |  |
| Cc1nn(C)c2cc(-c3cc(Nc4ccc(-c5cc[nH]c5)cc4)nc(N4CCOCC4)n3)ccc12 [[6-(1,3-dimethyl(1H-indazol-6-yl))-2-morpholin-4-ylpyrimidin-4-yl](4-pyrrol-3-ylphenyl)amine] | 500 to 1000 |  |
| CNC(=O)c1ccc(Nc2cc(-c3ccc4ncn(C)c4c3)nc(N3CCOCC3)n2)cn1 [N-methyl(5-{[6-(1-methylbenzimidazol-6-yl)-2-morpholin-4-ylpyrimidin-4-yl]amino}(2-pyridyl))carboxamide] | 500 to 1000 |  |
| Cc1ccc(Nc2cc(-c3ccc4c(CCN5CCOCC5)nn(C)c4c3)nc(N3CCOCC3)n2)cc1 [{6-[1-methyl-3-(2-morpholin-4-ylethyl)(1H-indazol-6-yl)]-2-morpholin-4-ylpyrimidin-4-yl}(4-methylphenyl)amine] | 500 to 1000 |  |
| Cn1nc(CCN2CCOCC2)c2ccc(-c3cc(Nc4ccc5ccn(C6CC6)c5c4)nc(N4CCOCC4)n3)cc21 [(1-cyclopropylindol-6-yl) {6-[1-methyl-3-(2-morpholin-4-ylethyl)(1H-indazol-6-yl)]-2-morpholin-4-ylpyrimidin-4-yl}amine] | 1000 to 5000 |  |
| Cc1nn(C)c2cc(-c3cc(Nc4ccc(-c5ccc[nH]5)cc4)nc(N4CCOCC4)n3)ccc12 [[6-(1,3-dimethyl(1H-indazol-6-yl))-2-morpholin-4-ylpyrimidin-4-yl](4-pyrrol-2-ylphenyl)amine] | < 500 |  |
| Cn1ccnc1-c1ccc(Nc2cc(-c3ccc4c(CCN5CCOCC5)nn(C)c4c3)nc(N3CCOCC3)n2)cc1 [[4-(1-methylimidazol-2-yl)phenyl]{6-[1-methyl-3-(2-morpholin-4-ylethyl)(1H-indazol-6-yl)]-2-morpholin-4-ylpyrimidin-4-yl}amine] | 500 to 1000 |  |
| Cc1c(C)n(C)c2cc(Nc3cc(-c4ccc5cnn(C)c5c4)nc(N4CCOCC4)n3)ccc12 [[6-(1-methyl(1H-indazol-6-yl))-2-morpholin-4-ylpyrimidin-4-yl](1,2,3-trimethylindol-6-yl)amine] | 1000 to 5000 |  |
| Cc1ccc(Nc2cc(-c3ccc4cnn(C)c4c3)nc(N3CCOCC3)n2)cc1 [[6-(1-methyl(1H-indazol-6-yl))-2-morpholin-4-ylpyrimidin-4-yl](4-methylphenyl)amine] | 1000 to 5000 |  |
| Cn1ncc2ccc(-c3cc(Nc4ccc(-c5cc[nH]c5)cc4)nc(N4CCOCC4)n3)cc21 [[6-(1-methyl(1H-indazol-6-yl))-2-morpholin-4-ylpyrimidin-4-yl](4-pyrrol-3-ylphenyl)amine] | 500 to 1000 |  |
| COC(=O)c1ccc(Nc2cc(-c3ccc4cnn(C)c4c3)nc(N3CCOCC3)n2)cc1 [methyl 4-{[6-(1-methyl(1H-indazol-6-yl))-2-morpholin-4-ylpyrimidin-4-yl]amino}benzoate] | 1000 to 5000 |  |
| Cn1cccc1-c1ccc(Nc2cc(-c3ccc4c(CCN5CCOCC5)nn(C)c4c3)nc(N3CCOCC3)n2)cc1 [{6-[1-methyl-3-(2-morpholin-4-ylethyl)(1H-indazol-6-yl)]-2-morpholin-4-ylpyrimidin-4-yl}[4-(1-methylpyrrol-2-yl)phenyl]amine] | < 500 |  |
| Cn1nc(CCCO)c2ccc(-c3cc(Nc4ccc(Cl)cc4)nc(N4CCOCC4)n3)cc21 [3-(6-{6-[(4-chlorophenyl)amino]-2-morpholin-4-ylpyrimidin-4-yl}-1-methyl-1H-indazol-3-yl)propan-1-ol] | 500 to 1000 |  |
| CNC(=O)c1ccc(Nc2cc(-c3ccc4ncn(CCOC)c4c3)nc(N3CCOCC3)n2)cc1 [[4-({6-[1-(2-methoxyethyl)benzimidazol-6-yl]-2-morpholin-4-ylpyrimidin-4-yl}amino)phenyl]-N-methylcarboxamide] | < 500 |  |
| Cc1nn(CCCN2CCCC2)c2cc(-c3cc(Nc4ccc(Cl)cc4)nc(N4CCOCC4)n3)ccc12 [(4-chlorophenyl){6-[3-methyl-1-(3-pyrrolidinylpropyl)(1H-indazol-6-yl)]-2-morpholin-4-ylpyrimidin-4-yl}amine] | 500 to 1000 |  |
| Cc1cnn(-c2ccc(Nc3cc(-c4ccc5c(C)nn(C)c5c4)nc(N4CCOCC4)n3)cc2)n1 [[6-(1,3-dimethyl(1H-indazol-6-yl))-2-morpholin-4-ylpyrimidin-4-yl][4-(4-methyl(1,2,3-triazol-2-yl))phenyl]amine] | < 500 |  |
